This is an account of results in patent US6191144A, “Method of using angiotensin converting enzyme inhibitor to stimulate angiogenesis” (priority 1999, dated 2001).

“Also recorded” adds a separate entry of the source.

For one data set, the system named is B2-receptor. To be noted: B2-receptor antagonist; cited from earlier work.
In another data set the test system is coronary microvessels. To be noted: Greiss reaction (Circulation, 95:176-182); cited from earlier work.
The test system of data set [1] is rabbit ischemic hindlimb model. Put plainly: Angiographic score of collateral development. To be noted: D40; medial thigh.
Data set [2] has as its system rabbit ischemic hindlimb model. Put plainly: Capillary density in ischemic hindlimb muscles. The following applies: D40; medial thigh muscles of ischemic limb.
Data set [3] has as its system Angiotensin Converting Enzyme. Put plainly: Tissue ACE activity in thigh muscle homogenate of treated rabbits. In kind it is in vivo, New Zealand White rabbits. To be noted: for mean tissue ACE activity in thigh muscles: additional rabbits treated D10 up to D35; for residual tissue ACE activity, % of non-treated tissue activity: thigh muscle, treated D10 up to D35. From the text:
Then, they were sacrificed, and muscles harvested for tissue in order to measure tissue ACE activity.
In order to determine the tissue ACE activity, muscles from the additional group were harvested, weighed, and homogenized in PBS. The obtained solution was used as a substrate for the ACE determination kit (Sigma, St. Louis, Mo.), and the result, divided by sample weight, is expressed as international units per gram of tissue (Ul/g).

For data set [4], the system named is Angiotensin Converting Enzyme. Put plainly: Serum ACE activity (Sigma kit, FAPGG substrate) in treated ischemic rabbits. In kind it is in vivo, New Zealand White rabbits. To be noted: for residual ACE activity in serum (D14 serum activity/D10 serum activity): D14, 24 hours after injection, daily s.c. captopril 25 mg or quinaprilat 2 mg; for serum ACE activity as percentage of basal value: D40, after 5 days of discontinuation of injections; for serum ACE inhibition at any time: daily s.c. treatment, inferred from 24 hour trough at D14. The procedure: The serum ACE activity in the blood samples obtained from ear vein was determined using a kit obtained from Sigma (St. Louis, Mo.). The procedure used is a spectrophotometric method utilizing the synthetic tripeptide substrate N-[3-(2-furyl)acryloyl]-L-phenylalanylglycylglycine (FAPGG). ACE catalyzes hydrolysis of FAPGG to furylacryloylphenylalanine (FAP) and glycylglycine, which results in a decrease in absorbance at a wavelength of 340 nm. The ACE activity in the sample was determined by comparing the sample reaction rate to that obtained with an ACE calibrator.
The efficiency of the treatment is calculated as the percentage of the D10 serum activity according to the ratio: D14 serum activity/D10 serum activity.
For the latter drug, tablets were daily dissolved in saline serum and the resulting suspension was injected. Acetylcholine chloride, serotonin […] sulfate, and sodium nitroprusside were all purchased from Sigma Chemical Co., St. Louis, Mo.

Data set [5] relates to rabbit ischemic hindlimb model. Put plainly: Vasomotor reactivity: blood flow ratio in internal iliac artery after vasoactive agents. It counts as in vivo, New Zealand White rabbits. To be noted: D40; for blood flow ratio (stimulated flow/basal flow), acetylcholine: acetylcholine 1.5 μg/min/kg intra-arterial; for blood flow ratio (stimulated flow/basal flow), nitroprusside: nitroprusside 1.5 μg/min/kg intra-arterial; for blood flow ratio (stimulated flow/basal flow), serotonin: serotonin 1.5 μg/min/kg intra-arterial. On the procedure:
After measurement of lower limb blood pressure, a 3 Fr., end-hole infusion catheter (Tracker-i 8 TM, Target Therapeutics, San Jose, Calif.) was inserted into the left common carotid artery and advanced to the abdominal aorta. A 0.018 inch Doppler guidewire (Cardiometrics, Inc., Mountain View, Calif.) was advanced through the 3 Fr. infusion to the proximal segment of the internal iliac artery supplying the ischemic limb.
Vascular reactivity was assessed in this study measuring the variation of blood flow induced by vasodilators in the internal iliac artery of the ischemic limb. Blood flow was calculated from the Doppler measurements, using the formula QD =(πd^2 /4)(0.5×APV), where QD =Doppler-derived time average flow, d=vessel diameter, and APV=time average of the spectral peak velocity (Am. J Physiol., 1994;267:H1263-H1271). The mean velocity was estimated as 0.5×APV by assuming a time-averaged parabolic velocity profile across the vessel. […] The angiographic diameter of main collateral artery was determined using an automated edge-detection system that has been previously validated in vivo (Am. J Physiol., 1994;267:H1263-H1271). […] Center-lines were traced manually for a 10-mm long segment beginning immediately distal to the tip of the Doppler wire. The contours were subsequently detected automatically on the basis of the weighted sum of first and second derivative functions applied to the digitized brightness information. The vascular diameter was then measured at the site of the Doppler sample volume, i.e., 5 mm distal to the wire tip (Am. J Physiol., 1994;267:H1263-H1271). Cross-sectional area was calculated assuming a circular lumen.
The results of calculation for blood flow are expressed as the ratio of blood flow after vasodilator injection to basal blood flow, measured just before the injection.

Data set [6] concerns rabbit ischemic hindlimb model. Put plainly: Lower-limb blood pressure ratio (ischemic/normal limb). In kind it is in vivo, New Zealand White rabbits. To be noted: D40. The procedure:
(§1) The animal model was a previously described rabbit ischemic hindlimb model (J. Clin. Invest. 93:662-670). […] A longitudinal incision was then performed, extending from the inguinal ligament to a point just proximal to the patella. Through this incision, the femoral artery and each of its branches were dissected free along its entire length. After dissecting the popliteal and saphenous arteries distally, the external iliac artery and all of the above arteries were ligated with 4.0 silk (Ethicon, Sommerville, N.J.). Finally, the femoral artery was completely excised from its proximal origin as a branch of the external iliac artery, to the point distally where it bifurcates to form the saphenous and popliteal arteries. Following excision of the femoral artery, retrograde propagation of thrombus leads to occlusion of the external iliac artery. Blood flow to the ischemic limb consequently becomes dependent upon collateral vessels issuing from the internal iliac artery.
Animals with limb ischemia were randomly divided into 4 groups. […] The ischemic control group consisted of 6 rabbits receiving no medication of any kind.

Data set [7] relates to rabbit ischemic hindlimb model. The data set can be described thus: Vascular resistance ratio at internal iliac artery after vasoactive agents. The following applies: D40.
In data set [8] the test system is rabbit ischemic hindlimb model. The following applies: D40 vs control. The procedure: Angiogenesis following resection of femoral artery was assessed at Day 10 (D10) and D40 post-operatively on functional (blood pressure ratio of ischemic to healthy limb, vasoreactivity and resistance) and morphological (angiography and capillary density) criteria.
as §1, with “Blood flow to the ischemic limb consequently becomes dependent upon collateral vessels issuing from the internal iliac artery.” left out
The four groups were investigated at D10 and D40 post-operatively at which time lower limb blood pressure, vasomotor reactivity, and angiographic score were evaluated. […]

The mark [9] stands for this setting: Day 10 (basal value, before treatment).
Where [10] appears, read: Day 40 (5 days after discontinuation).

For the compound `NC(N)=NCCC[C@@H](N)C(=O)N[C@@H](CCCN=C(N)N)C(=O)N1CCC[C@H]1C(=O)N1C[C@H](O)C[C@H]1C(=O)NCC(=O)N[C@@H](Cc1cccs1)C(=O)N[C@@H](CO)C(=O)N1Cc2ccccc2C[C@@H]1C(=O)N1[C@H](C(=O)N[C@@H](CCCN=C(N)N)C(=O)O)C[C@@H]2CCCC[C@@H]21` [Icatibant], in the data set with B2-receptor, the “effect on cardiac capillary length density induced by ACE inhibition” value is given as “inhibited”.

As for `C[C@H](CS)C(=O)N1CCC[C@H]1C(=O)O` [captopril], the NO accumulation result in the data set with coronary microvessels was “promotion of NO accumulation”. Besides, in [1], the angiographic score amounted to 35.03±0.02%. For the same compound, in data set [2], the capillary density is listed as 147.2±11.9 /mm^2. In addition, in data set [3], the “mean tissue ACE activity in thigh muscles” value stood at 7.65±1.69 Ul/g and the “residual tissue ACE activity, % of non-treated tissue activity” value was determined as 61%. Further, in data set [4], the “residual ACE activity in serum (D14 serum activity/D10 serum activity)” value amounted to 42.54±0.03%, the “serum ACE activity as percentage of basal value” is 92.87±0.04% and the “serum ACE inhibition at any time” value is “higher than 50%”. Also, the “Serum ACE Activity” value in data set [4] (setting [9]) turned out to be 55.94 ± 0.75 U/L. Further, the “Serum ACE Activity” value in data set [4] (Day 14 (efficiency value)) is reported as 23.92 ± 0.60 U/L. Also, in data set [4] (setting [10]), the “Serum ACE Activity” value is listed as 51.80 ± 0.80 U/L.

As to `C[C@H](N[C@@H](CCc1ccccc1)C(=O)O)C(=O)N1CCC[C@H]1C(=O)O` [enalaprilat], in the data set with coronary microvessels, the NO accumulation entry is listed as “promotion of NO accumulation”.

Turning to `C[C@H](N[C@@H](CCc1ccccc1)C(=O)O)C(=O)N1Cc2ccccc2C[C@H]1C(=O)O` [quinaprilat], in [5], the “blood flow ratio (stimulated flow/basal flow), acetylcholine” value is 3.06±0.25; the “blood flow ratio (stimulated flow/basal flow), nitroprusside” value came to 2.94±0.24; the “blood flow ratio (stimulated flow/basal flow), serotonin” value is recorded as 1.17±0.08. For the same compound, the “ischemic/normal calf systolic blood pressure ratio” value in data set [6] was 0.86±0.03. Moreover, in [7], the “vascular resistance ratio (after injection/basal), acetylcholine” value was 0.32±0.03; the “vascular resistance ratio (after injection/basal), nitroprusside” value worked out at 0.28±0.02; the “vascular resistance ratio (after injection/basal), serotonin” value worked out at 0.94±0.06. Moreover, in data set [8], the “stimulation of angiogenesis (functional and morphological criteria)” value is on record as “more developed angiogenesis; also recorded: improvement; also recorded: stimulates angiogenesis in vivo”. In the data set “Body weight (Table 1)” (Day 10), the “Body Weight” value is on record as 4.19 ± 0.10 kg. Besides, the “Body Weight” value in “Body weight (Table 1)” (Day 40) is 4.54 ± 0.20 kg. This compound yielded an angiographic score in data set [1] of 51.19%. For the same compound, the capillary density in data set [2] is 214.0±6.4 /mm^2. In addition, in data set [3], the “mean tissue ACE activity in thigh muscles” value was 1.69±0.70 Ul/g and the “residual tissue ACE activity, % of non-treated tissue activity” value is given as 13%. In [4], the “residual ACE activity in serum (D14 serum activity/D10 serum activity)” value was 41.53±0.02%, the “serum ACE activity as percentage of basal value” stood at 80.71±0.08% and the “serum ACE inhibition at any time” value is recorded as “higher than 50%”. Besides, the “Serum ACE Activity” value in data set [4] (setting [9]) amounted to 59.50 ± 1.38 U/L. For the same compound, in data set [4] (Day 14 (efficiency value)), the “Serum ACE Activity” value turned out to be 24.32 ± 0.46 U/L. For the same compound, the “Serum ACE Activity” value in [4] (setting [10]) came to 46.40 ± 0.98 U/L.

On to `CCOC(=O)[C@H](CCc1ccccc1)N[C@@H](C)C(=O)N1[C@H](C(=O)O)C[C@@H]2CCC[C@@H]21` [ramipril], for which the NO accumulation result in the data set with coronary microvessels is recorded as “promotion of NO accumulation”.

Turning to VEGF, in [5], the “blood flow ratio (stimulated flow/basal flow), acetylcholine” value came out at 2.72±0.22; the “blood flow ratio (stimulated flow/basal flow), nitroprusside” value worked out at 2.66±0.35; the “blood flow ratio (stimulated flow/basal flow), serotonin” value is on record as 1.19±0.09. Also, in data set [6], the “ischemic/normal calf systolic blood pressure ratio” value amounted to 0.74±0.03. Also, in data set [7], the “vascular resistance ratio (after injection/basal), acetylcholine” value came out at 0.35±0.03; the “vascular resistance ratio (after injection/basal), nitroprusside” value is 0.29±0.04; the “vascular resistance ratio (after injection/basal), serotonin” value amounted to 0.77±0.04. Further, the “stimulation of angiogenesis (functional and morphological criteria)” value in data set [8] is given as “more developed angiogenesis”. The angiographic score in data set [1] was 50.88±0.04%. The capillary density in data set [2] was 228.8±9.6 /mm^2.
